Data as given in ChEMBL document CHEMBL5034019, “Discovery of the Next-Generation Pan-TRK Kinase Inhibitors for the Treatment of Cancer” (J Med Chem, 2021).
The source made the active and inactive calls. The rule behind the calls is not given here.

Tests used:
[1] = cells; details: Homo sapiens, CUTO-3
Description: Antiproliferative activity against TrK fused human CUTO-3 cells

[2] = Volume of distribution in Sprague-Dawley rat at 3 mg/kg measured up to 24 hrs by LC-MS/MS analysis; type: ADME, organism-based; details: in vivo
[3] = Oral bioavailability in Sprague-Dawley rat at 10 mg/kg measured up to 24 hrs by LC/MS/MS analysis; type: ADME, organism-based; details: in vivo
[4] = system: BaF3; assay: Antitumor activity against mouse BaF3 cells transfected with ETV6-NTRK3 cells xenografted in mouse assessed as tumor growth inhibition at 100 mg/kg, po administered once daily for 21 days and measured twice weekly; details: time 21.0 day
[5] = C0 in Sprague-Dawley rat at 3 mg/kg measured up to 24 hrs by LC/MS/MS analysis; type: ADME, organism-based; details: in vivo
[6] = AUC (0 to t) in Sprague-Dawley rat at 10 mg/kg, po measured up to 24 hrs by LC-MS/MS analysis; type: ADME, organism-based; design: route oral, dose 10 mg/kg, time <=24; details: in vivo
[7] = Toxicity in mouse xenografted with mouse BaF3 cells transfected with ETV6-NTRK3 assessed as unkempt appearance at 100 mg/kg, po administered once daily for 21 days and measured twice weekly; details: in vivo, 504 h
[8] = target: ALK tyrosine kinase receptor (Homo sapiens, UniProt Q9UM73); assay: Inhibition of human ALK (1058 to end residues) assessed as residual activity at 0.5 uM using KKKSPGEYVNIEFG as substrate incubated for 40 mins in presence of [gamma-33ATP] by scintillation counting based radiometry assay relative to control
[9] = target: Receptor-interacting serine/threonine-protein kinase 2 (Homo sapiens) (UniProt O43353); assay: Inhibition of recombinant human RIPK2 (1 to 299 residues) assessed as residual activity at 0.5 uM using myelin basic protein as substrate incubated for 120 mins in presence of [gamma33P]ATP by scintillation counting based radiometry assay relative to control
[10] = system: Epidermal growth factor receptor (Homo sapiens), P00533 [L858R]; assay: Inhibition of recombinant human EGFR L858R mutant (696 to end residues) assessed as residual activity at 0.5 uM using poly(Glu, Tyr) 4:1 as substrate at 40 mins in presence of [gamma-33ATP] by scintillation counting based radiometry assay relative to control
[11] = Tmax in male Sprague-Dawley rat at 10 mg/kg, po measured up to 24 hrs by LC-MS analysis; type: ADME, organism-based; details: in vivo
[12] = Toxicity in mouse xenografted with mouse BaF3 cells transfected with ETV6-NTRK3-G623R mutant assessed as weight loss at 20 mg/kg, po administered once daily for 21 days and measured twice weekly; details: in vivo, 504 h
[13] = Oral bioavailability in female Sprague-Dawley rat at 10 mg/kg measured up to 24 hrs by LC/MS/MS analysis; type: ADME, organism-based; details: in vivo
[14] = Volume of distribution in female Sprague-Dawley rat at 2 mg/kg, iv measured up to 24 hrs by LC-MS/MS analysis; type: ADME, organism-based; details: in vivo
[15] = system: Hepatocyte growth factor receptor (Homo sapiens), P08581 [D1246H]; assay: Inhibition of recombinant human Met D1246H mutant (974 to end residues) assessed as residual activity at 0.5 uM using KKKGQEEEYVFIE as substrate incubated for 40 mins in presence of [gamma-33P]-ATP by scintillation counting method relative to control
[16] = system: Platelet-derived growth factor receptor alpha (Homo sapiens), P16234 [D842V]; assay: Inhibition of human PDGFRalpha D842V mutant (550 to end residues) assessed as residual activity at 0.5 uM using poly(Glu, Tyr) 4:1 as substrate measured after 40 mins in presence of [gamma33P]ATP by scintillation counting based radiometry assay relative to control
[17] = target: NT-3 growth factor receptor (Homo sapiens, UniProt Q16288); assay: Inhibition of human TrkC (510 to end residues) assessed as residual activity at 0.5 uM using GEEPLYWSFPAKKK as substrate measured after 40 mins in presence of [gamma33P]ATP by scintillation counting method relative to control
[18] = target: Serine/threonine-protein kinase B-raf (Homo sapiens) (UniProt P15056); assay: Inhibition of recombinant […] human B-Raf (416 to end residues) assessed as residual activity at 0.5 uM using myelin basic protein substrate incubated for 40 mins in presence of [gamma-33ATP] by scintillation counting based radiometry assay relative to control
[19] = Toxicity in mouse xenografted with mouse BaF3 cells transfected with LMNA-NTRK1-G595R mutant assessed as weight loss at 20 mg/kg, po administered once daily for 21 days and measured twice weekly; details: in vivo, 504 h

Sequence of ALK tyrosine kinase receptor (Q9UM73 19-1620 limits assumed): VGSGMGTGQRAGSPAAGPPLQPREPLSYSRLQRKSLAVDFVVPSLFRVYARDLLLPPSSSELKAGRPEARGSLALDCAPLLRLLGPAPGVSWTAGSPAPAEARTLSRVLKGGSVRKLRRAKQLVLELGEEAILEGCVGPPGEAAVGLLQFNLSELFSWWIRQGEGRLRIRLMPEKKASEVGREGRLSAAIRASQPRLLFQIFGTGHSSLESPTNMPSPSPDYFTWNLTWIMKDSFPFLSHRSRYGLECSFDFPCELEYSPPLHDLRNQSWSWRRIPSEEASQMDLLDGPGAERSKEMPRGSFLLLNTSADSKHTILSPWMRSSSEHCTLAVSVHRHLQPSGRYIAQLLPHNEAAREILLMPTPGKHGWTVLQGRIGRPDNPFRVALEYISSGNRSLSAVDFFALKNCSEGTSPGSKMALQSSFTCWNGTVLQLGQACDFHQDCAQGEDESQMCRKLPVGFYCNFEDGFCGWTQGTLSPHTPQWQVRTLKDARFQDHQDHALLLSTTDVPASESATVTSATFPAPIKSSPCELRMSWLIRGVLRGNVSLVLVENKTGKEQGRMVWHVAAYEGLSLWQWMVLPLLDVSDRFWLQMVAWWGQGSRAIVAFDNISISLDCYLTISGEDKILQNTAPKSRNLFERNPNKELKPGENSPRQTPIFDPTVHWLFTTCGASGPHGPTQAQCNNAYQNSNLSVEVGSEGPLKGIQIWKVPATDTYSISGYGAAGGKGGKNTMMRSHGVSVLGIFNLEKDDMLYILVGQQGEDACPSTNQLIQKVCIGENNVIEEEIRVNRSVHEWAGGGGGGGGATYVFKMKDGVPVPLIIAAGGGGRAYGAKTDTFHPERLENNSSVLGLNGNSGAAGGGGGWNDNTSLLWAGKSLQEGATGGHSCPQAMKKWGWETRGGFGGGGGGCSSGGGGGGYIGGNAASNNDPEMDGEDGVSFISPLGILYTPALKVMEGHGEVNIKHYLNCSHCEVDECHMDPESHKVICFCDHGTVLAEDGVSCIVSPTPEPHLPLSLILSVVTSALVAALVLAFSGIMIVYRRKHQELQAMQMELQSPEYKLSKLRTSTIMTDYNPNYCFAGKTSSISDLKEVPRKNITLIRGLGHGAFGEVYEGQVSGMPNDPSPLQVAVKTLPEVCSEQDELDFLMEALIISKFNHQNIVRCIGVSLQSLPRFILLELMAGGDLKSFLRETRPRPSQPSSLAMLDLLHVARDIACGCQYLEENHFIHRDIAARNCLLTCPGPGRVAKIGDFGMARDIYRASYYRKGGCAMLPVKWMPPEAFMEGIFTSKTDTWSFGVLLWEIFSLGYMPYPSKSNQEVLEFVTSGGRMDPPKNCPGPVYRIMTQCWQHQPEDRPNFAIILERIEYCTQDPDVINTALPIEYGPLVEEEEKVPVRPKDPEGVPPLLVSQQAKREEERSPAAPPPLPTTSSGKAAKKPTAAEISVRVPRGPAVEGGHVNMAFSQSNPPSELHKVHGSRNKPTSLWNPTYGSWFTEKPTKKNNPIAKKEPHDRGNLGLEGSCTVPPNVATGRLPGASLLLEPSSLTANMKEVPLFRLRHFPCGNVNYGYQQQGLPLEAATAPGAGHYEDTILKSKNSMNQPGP
Sequence of NT-3 growth factor receptor (Q16288 32-839 limits assumed): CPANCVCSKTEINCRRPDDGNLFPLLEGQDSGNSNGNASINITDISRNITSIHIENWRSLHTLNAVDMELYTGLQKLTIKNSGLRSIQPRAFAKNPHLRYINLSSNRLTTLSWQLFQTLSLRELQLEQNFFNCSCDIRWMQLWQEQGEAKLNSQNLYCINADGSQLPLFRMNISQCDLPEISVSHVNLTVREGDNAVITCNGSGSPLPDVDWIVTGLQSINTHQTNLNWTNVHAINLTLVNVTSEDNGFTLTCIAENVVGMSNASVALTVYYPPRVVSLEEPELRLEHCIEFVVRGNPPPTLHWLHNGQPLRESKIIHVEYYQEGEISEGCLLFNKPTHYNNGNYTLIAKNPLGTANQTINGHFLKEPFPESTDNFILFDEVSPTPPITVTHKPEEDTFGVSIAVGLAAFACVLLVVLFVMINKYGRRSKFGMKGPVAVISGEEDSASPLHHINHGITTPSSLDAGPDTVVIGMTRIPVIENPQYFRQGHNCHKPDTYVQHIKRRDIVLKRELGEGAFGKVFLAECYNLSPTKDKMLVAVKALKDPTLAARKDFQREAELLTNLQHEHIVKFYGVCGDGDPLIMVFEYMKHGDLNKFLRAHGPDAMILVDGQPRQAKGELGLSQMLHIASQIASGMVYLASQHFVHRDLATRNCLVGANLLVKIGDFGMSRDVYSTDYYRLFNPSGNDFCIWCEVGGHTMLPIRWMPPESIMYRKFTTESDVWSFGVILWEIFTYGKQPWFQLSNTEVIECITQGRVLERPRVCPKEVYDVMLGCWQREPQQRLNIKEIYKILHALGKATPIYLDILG
Sequence of Serine/threonine-protein kinase B-raf (Homo sapiens) (P15056 whole entry): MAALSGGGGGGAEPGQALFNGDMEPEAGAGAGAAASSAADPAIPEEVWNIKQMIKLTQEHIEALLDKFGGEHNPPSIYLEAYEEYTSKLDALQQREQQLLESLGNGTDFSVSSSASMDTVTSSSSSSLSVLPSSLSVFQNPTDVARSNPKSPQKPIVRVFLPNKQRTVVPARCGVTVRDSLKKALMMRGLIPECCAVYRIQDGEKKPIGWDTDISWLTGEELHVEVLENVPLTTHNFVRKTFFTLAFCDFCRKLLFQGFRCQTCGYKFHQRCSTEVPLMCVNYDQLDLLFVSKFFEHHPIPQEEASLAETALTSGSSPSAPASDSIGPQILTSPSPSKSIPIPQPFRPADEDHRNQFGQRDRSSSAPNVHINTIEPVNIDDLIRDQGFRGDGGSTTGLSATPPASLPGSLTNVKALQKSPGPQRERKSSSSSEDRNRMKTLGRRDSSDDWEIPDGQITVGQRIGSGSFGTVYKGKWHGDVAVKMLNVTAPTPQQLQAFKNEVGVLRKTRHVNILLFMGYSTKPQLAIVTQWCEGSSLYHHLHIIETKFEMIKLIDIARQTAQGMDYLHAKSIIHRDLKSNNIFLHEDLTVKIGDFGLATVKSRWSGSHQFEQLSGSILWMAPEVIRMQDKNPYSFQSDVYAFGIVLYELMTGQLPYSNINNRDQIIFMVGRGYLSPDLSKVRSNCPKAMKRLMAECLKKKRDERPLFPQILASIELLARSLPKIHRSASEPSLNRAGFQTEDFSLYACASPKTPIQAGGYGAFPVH
Sequence of Receptor-interacting serine/threonine-protein kinase 2 (Homo sapiens) (O43353 whole entry, the tested form may be a part): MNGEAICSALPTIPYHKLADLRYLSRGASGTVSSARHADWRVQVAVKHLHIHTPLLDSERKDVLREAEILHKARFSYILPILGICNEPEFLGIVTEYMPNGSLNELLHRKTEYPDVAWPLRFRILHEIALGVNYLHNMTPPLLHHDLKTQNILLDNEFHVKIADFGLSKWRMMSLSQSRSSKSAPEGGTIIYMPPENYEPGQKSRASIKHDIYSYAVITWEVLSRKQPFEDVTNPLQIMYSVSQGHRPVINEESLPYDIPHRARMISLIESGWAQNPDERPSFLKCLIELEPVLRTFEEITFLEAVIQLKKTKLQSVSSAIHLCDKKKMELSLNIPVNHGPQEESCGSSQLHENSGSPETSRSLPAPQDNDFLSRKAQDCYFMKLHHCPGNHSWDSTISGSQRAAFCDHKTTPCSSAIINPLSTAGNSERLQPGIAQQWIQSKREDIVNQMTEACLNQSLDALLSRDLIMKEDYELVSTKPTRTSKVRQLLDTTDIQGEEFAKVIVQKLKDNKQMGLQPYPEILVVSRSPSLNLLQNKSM
Sequence of Platelet-derived growth factor receptor alpha (Homo sapiens), P16234 [D842V] (P16234 whole entry D842V): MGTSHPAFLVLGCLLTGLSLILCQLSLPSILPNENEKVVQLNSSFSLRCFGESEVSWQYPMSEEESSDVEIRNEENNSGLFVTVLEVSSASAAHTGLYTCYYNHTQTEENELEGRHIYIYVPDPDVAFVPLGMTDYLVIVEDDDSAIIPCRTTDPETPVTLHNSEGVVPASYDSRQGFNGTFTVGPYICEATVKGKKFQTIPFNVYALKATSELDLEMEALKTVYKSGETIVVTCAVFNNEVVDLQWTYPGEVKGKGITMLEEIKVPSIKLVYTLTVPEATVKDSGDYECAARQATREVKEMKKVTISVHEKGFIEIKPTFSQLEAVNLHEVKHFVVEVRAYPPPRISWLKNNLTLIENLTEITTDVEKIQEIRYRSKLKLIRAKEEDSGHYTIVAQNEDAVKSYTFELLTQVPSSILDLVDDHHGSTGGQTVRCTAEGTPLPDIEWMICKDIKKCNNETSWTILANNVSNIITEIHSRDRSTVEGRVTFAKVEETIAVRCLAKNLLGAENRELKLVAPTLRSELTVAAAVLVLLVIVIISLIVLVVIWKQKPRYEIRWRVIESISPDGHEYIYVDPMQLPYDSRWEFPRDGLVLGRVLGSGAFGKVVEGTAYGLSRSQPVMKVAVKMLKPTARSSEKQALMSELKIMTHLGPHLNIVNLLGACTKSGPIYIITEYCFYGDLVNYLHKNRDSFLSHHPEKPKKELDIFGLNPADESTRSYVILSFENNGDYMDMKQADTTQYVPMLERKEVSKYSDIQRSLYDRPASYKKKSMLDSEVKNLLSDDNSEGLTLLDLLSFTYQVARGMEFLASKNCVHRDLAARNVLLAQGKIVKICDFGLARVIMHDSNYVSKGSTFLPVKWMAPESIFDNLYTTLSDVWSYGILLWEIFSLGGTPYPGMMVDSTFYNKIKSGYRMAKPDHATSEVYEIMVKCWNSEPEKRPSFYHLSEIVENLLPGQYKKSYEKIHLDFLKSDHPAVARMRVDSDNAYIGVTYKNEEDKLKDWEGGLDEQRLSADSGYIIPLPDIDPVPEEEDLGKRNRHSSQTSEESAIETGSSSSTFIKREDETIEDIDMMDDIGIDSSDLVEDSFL

| Activity [8] | Activity [9] | Activity [10] | Tmax [11] | bioavailability [13] | Vd [14] | Activity [15] | Activity [16] | Activity [17] | Activity [18] | Structure (SMILES) | IC50 [1] | Vd [2] | bioavailability [3] | Activity [4] | C0 [5] | AUC(0-t) at 24 h [6] | Activity [7] | Activity [12] | Activity [19] |
| --- | --- | --- | --- | --- | --- | --- | --- | --- | --- | --- | --- | --- | --- | --- | --- | --- | --- | --- | --- |
| – | – | – | – | – | – | – | – | – | – | C[C@@H]1CCc2ncc(F)cc2[C@H]2CCCN2c2ccn3ncc(c3n2)C(=O)N1 [SELITRECTINIB] | ≤ 5 nM | 0.5 L/kg | 74% | Active | 23.779 µM | 27.3 µM·h | Toxic | – | – |
| 26% | 93% | 91% | 40 min | 61.9% | 1.46 L/kg | 91% | 102% | -3% | 111% | O=C1NC2(CC2)COc2ncc(F)cc2[C@H]2COCCN2c2ccn3ncc1c3n2 | – | – | – | – | – | – | – | Toxic | Toxic |
